The target in the assay is interaction between GST-MAGEA11 MHD and FAM-PCF11_4 peptide (MAGE-A11:PCF11) (Homo sapiens (Human), UniProt P43364). Description: TR-FRET dose response competition assay for disruption of MAGE-A11:PCF11 binding. The source says: TR-FRET Assays and High-throughput Screen. Terbium-anti-GST antibody, 1 M Tris pH 7.5 1 M MgCl2 and 1 M DTT were purchased from Invitrogen (Carlsbad, CA), BSA was purchased from Sigma (St. Louis, MO). Dimethyl sulfoxide (DMSO) was purchased from Fisher Scientific (Pittsburgh, PA). Black 384-well low volume plates and 384-well polypropylene compound plates were purchased from Corning Incorporated (Tewksbury, MA). The St. Jude FDA drug and Bioactive library (11,293 chemicals), Drug-like library (10,073 chemicals) and Lead-like library (10,041 chemicals) were custom assembled and purchased from commercial sources including Sigma, Microsource (Gaylordsville, CT), selleckchem (Houston, TX), ChemDiv (San Diego, CA), ChemBridge (San Diego, CA), Enamine (Monmouth Jct., NJ), and Life Chemicals (Niagara-on-the-Lake, ON, Canada). They were arrayed (10 mM in DMSO) in 384-well polypropylene compound plates with columns 1, 2, 13 and 14 empty which were reserved for controls.
The TR-FRET assay buffer with a formula of 50 mM Tris pH 7.5, 20 mM MgCl2, 0.1 mg/ml BSA and 1 mM DTT was freshly prepared before each experiment. All TR-FRET assays were performed in black 384-well plates with 20 μl/well assay volume in the TR-FRET assay buffer at room temperature (approximately 25° C.). All peptides or compounds were solubilized in DMSO. To test the competitive activity of peptides or compounds against the interaction between GST-MAGEA11 MHD and FAM-PCF11_4 peptide, 10 μl/well peptide or compound at specified concentration was dispensed into a black 384-well low volume plate, followed by 5 μl/well FAM-PCF11_4 (800 nM), 5 μl/well Tb-anti-GST (20 nM) and GST-MAGEA11 MHD (20 nM). The assay components in each well was then mixed by shaking the plate on an IKA MTS 2/4 digital microtiter plate shaker (IKA Works; Wilmington, NC, USA) at 900 RPM for 1 minute. The plate was further centrifuged in an Eppendorf 5810 centrifuge with an A-4-62 swing-bucket rotor (Eppendorf AG, Hamburg, Germany) at 201 g (1000 rpm) for 30 seconds. The plate was then incubated for 90 min with a lid to avoid light exposure to the assay components. After incubation, the fluorescent emission signals at 520 nm and 490 nm channels of individual wells were measured with a PHERAstar FS plate reader (BMG Labtech; Durham, NC, USA) by using a 340 nm excitation filter, 100 μs delay time, and 200 μs integration time. The TR-FRET fluorescence emission ratio (TR-FRET signal) for each well was presented as 10 000×520 nm/490 nm, which was used directly for curve fitting, or further converted to % Inhibition based on the respective positive and negative controls. The graphic software GraphPad Prism 4.81 (GraphPad Software; La Jolla, CA, USA) was used to generate curves and derive IC50 values of tested peptides or compounds, if applicable.
TR-FRET inhibitory activity characterization of a panel of PCF11 peptides against the interaction between GST-MAGEA11 MHD and FAM-PCF11_4 was performed as follows. In a 20 μl/well assay volume, dilutions of PCF11_1 to PCF11_8 peptides (concentrations ranged from 3.1 nM to 100 μM for peptides PCF11_4, PCF11_5, PCF11_6 and PCF11_8 in a 1-to-2 dilution pattern for 16 concentration levels, and ranged from 48.9 nM to 100 μM for peptides of PCF11_1, PCF11_2, PCF11_3 and PCF11_7 in a 1-to-2 dilution pattern for 12 concentration levels), 200 nM FAM-PCF11_4, 5 nM Tb-anti-GST and 5 nM GST-MAGEA11 were mixed together and incubated for 90 min before the TR-FRET signal for each well was measured. The final DMSO concentration was 1.1% (v/v). […] The signal of each peptide-treated well (Signalpeptide) was normalized to the positive and negative controls to derive % inhibition of the peptide at a specific concentration with equation 1. Where applicable, the % Inhibition data were fit into a Sigmoidal dose response equation to derive IC50 values.
TR-FRET screen for identifying MAGEA11 small molecule inhibitors was performed as follows.

Where [1] appears, read: Dose response TR-FRET screening of nine scaffold groups against MAGE-A11:PCF11, read-out: consensus IC50.

Each structure is given as a SMILES string. Where two headings read alike, the source gives them in different places.

interaction between GST-MAGEA11 MHD and FAM-PCF11_4 peptide (MAGE-A11:PCF11), sequence (P43364 218-429): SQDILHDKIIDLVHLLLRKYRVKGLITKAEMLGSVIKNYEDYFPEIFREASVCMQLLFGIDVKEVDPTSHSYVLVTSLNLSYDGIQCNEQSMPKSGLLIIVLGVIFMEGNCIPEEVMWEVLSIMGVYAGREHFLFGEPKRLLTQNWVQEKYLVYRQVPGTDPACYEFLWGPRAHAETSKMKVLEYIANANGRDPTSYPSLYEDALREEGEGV

Usually IC50 stands for the concentration at which inhibition is half-maximal. Regarding `CC(=O)N(C1=C(Cl)C(=O)c2ccccc2C1=O)c1cccc(O)c1` [SJ000046178-1], under setting [1], the IC50 stood at 69.9 µM.
Turning to `O=C1C(Cl)=C(Nc2cccc(Br)c2)C(=O)c2ccccc21` [SJ000048680-1], under setting [1], the IC50 amounted to 69.9 µM.
As for `O=C1c2ccccc2NC(c2ccc([N+](=O)[O-])cc2)N1Cc1ccccc1` (centres unmarked) [SJ000051049-1], under setting [1], the IC50 was 69.9 µM.
For `COc1ccc(-c2nc(C#N)c(N3CCOCC3)o2)cc1` [SJ000051527-1], the IC50 under setting [1] turned out to be 69.9 µM.
As for `CC(=O)NC1=C(N)C(=O)c2ccccc2C1=O` [SJ000053101-1], under setting [1], the IC50 was determined as 69.9 µM.
The same measure, in the same setting: then `O=C(NCC(O)CO)c1ccc2[nH]c3ccccc3c2c1` (centres unmarked) [SJ000053810-1], with 69.9 µM; and `OCCNCCNCc1ccc2[nH]c3ccccc3c2c1` [SJ000053962-1], with 69.9 µM; and `CN(C)CCCNCc1ccc2[nH]c3ccccc3c2c1` [SJ000054243-1], with 69.9 µM.
In the case of `CC(=O)NC1=C(Cl)C(=O)c2ccccc2C1=O` [SJ000067071-3], the IC50 under setting [1] turned out to be 69.9 µM.
For `COc1ccc(Nc2nc(N)c3ccccc3n2)cc1` [SJ000067204-1], under setting [1], the IC50 came to 69.9 µM.
Regarding `COP(=O)(OC)c1nc(-c2ccc(C)cc2)oc1N1CCOCC1` [SJ000090156-1], the IC50 under setting [1] was 69.9 µM.
Still for that read-out and setting: under `COP(=O)(OC)c1nc(-c2ccc(Br)cc2)oc1N1CCOCC1` [SJ000090176-1] stands 69.9 µM.
Consider `COP(=O)(OC)c1nc(-c2ccc(Cl)cc2)oc1N1CCOCC1` [SJ000090185-1], for which the IC50 under setting [1] came out at 17.4 µM.
Turning to `CCOP(=O)(OCC)c1nc(-c2ccc(Cl)cc2)oc1N1CCOCC1` [SJ000090230-1], under setting [1], the IC50 stood at 69.9 µM.
`COP(=O)(OC)c1nc(-c2ccc([N+](=O)[O-])cc2)oc1N1CCOCC1` [SJ000092444-1]: under setting [1], the IC50 is 69.9 µM.
For the compound `CCOP(=O)(OCC)c1nc(-c2ccc([N+](=O)[O-])cc2)oc1N1CCOCC1` [SJ000092459-1], the IC50 under setting [1] came out at 69.9 µM.
`CN(C)c1ccc(NC2=C(Cl)C(=O)c3ccccc3C2=O)cc1` [SJ000109503-1]: under setting [1], the IC50 turned out to be 3.3 µM.
For `CCn1c2ccccc2c2cc(CN3CCN(Cc4c[nH]c5ccccc45)CC3)ccc21` [SJ000111264-1], the IC50 under setting [1] was found to be 69.9 µM.
In the case of `COc1ccc(C2Nc3ccccc3C(=O)N2Cc2ccccc2)cc1CSc1ccccn1` (centres unmarked) [SJ000111312-2], the IC50 under setting [1] is 69.9 µM.
In the case of `CCn1c2ccccc2c2cc(CNCCc3ccccc3)ccc21` [SJ000111712-1], the IC50 under setting [1] worked out at 69.9 µM.
Still for that read-out and setting: under `CCn1c2ccccc2c2cc(CN3CCN(Cc4cc(OC)ccc4O)CC3)ccc21` [SJ000111875-2] stands 69.9 µM; under `CCn1c2ccccc2c2cc(CNCc3ccc(OC)cc3)ccc21` [SJ000112430-1], 69.9 µM.
The same measure, in the same setting: under `CCn1c2ccccc2c2cc(CNCCc3ccc(Cl)cc3)ccc21` [SJ000112458-1] stands 69.9 µM; under `CCn1c2ccccc2c2cc(CNCCc3ccc4c(c3)OCO4)ccc21` [SJ000112461-1], 69.9 µM; under `CCn1c2ccccc2c2cc(CN3CCC(N4CCN(c5ccccc5)CC4)CC3)ccc21` [SJ000112860-1], 69.9 µM.
On the same count and under the same terms, then `COc1cc2nc(N3CCN(C(=O)C4COc5ccccc5O4)CC3)nc(N)c2cc1OC` (centres unmarked) [SJ000113084-10], with 57.1 µM.
As for `Cc1ccc(NC2=C(Cl)C(=O)c3ccccc3C2=O)cc1` [SJ000120750-1], under setting [1], the IC50 turned out to be 69.9 µM.
With `COc1c2ccoc2nc2c(OC)c(OCC(O)C(C)O)ccc12` (centres unmarked) [SJ000121402], the IC50 (Table 8, representative compounds, read-out: TR-FRET IC50) was over 69.9 µM.
For the compound `CCOc1ccc(NC2=C(Cl)C(=O)c3ccccc3C2=O)cc1` [SJ000122936-1], the IC50 under setting [1] is 69.9 µM.
`CN(C)CCCNC(=O)c1ccc2[nH]c3ccccc3c2c1` [SJ000123281-1]: under setting [1], the IC50 was determined as 69.9 µM.
Still for that read-out and setting: then `COP(=O)(OC)c1nc(-c2ccccc2)oc1N1CCOCC1` [SJ000124835-1], with 69.9 µM.
With `CCOC(=O)COc1ccc(-c2nc3c(=O)n(C)c(=O)n(C)c3[nH]2)cc1OC` [SJ000140137-1], the IC50 under setting [1] came to 69.9 µM.
With `Cc1ccc(-c2nc(S(=O)(=O)c3ccc(Cl)cc3)c(N3CCOCC3)o2)cc1` [SJ000140851-1], the IC50 under setting [1] was 69.9 µM.
Still for that read-out and setting: under `CCCNC1=C(Cl)C(=O)c2ccccc2C1=O` [SJ000141460-3] stands 69.9 µM.
Take `CNC1=C(Cl)C(=O)c2ccccc2C1=O` [SJ000141461-1]: the IC50 under setting [1] came out at 69.9 µM.
`O=S(=O)(c1ccc(Cl)cc1)c1nc(-c2ccccc2Cl)oc1N1CCOCC1` [SJ000141574-1]: the IC50 under setting [1] worked out at 69.9 µM.
`CCN1CCN(Cc2ccc3c(c2)c2ccccc2n3CC)CC1` [SJ000142875-1]: the IC50 under setting [1] came to 69.9 µM.
`CCn1c2ccccc2c2cc(CN3CCN(C)CC3)ccc21` [SJ000142908-1]: the IC50 under setting [1] stood at 69.9 µM.
Take `CCn1c2ccccc2c2cc(CN3CCN(CCO)CC3)ccc21` [SJ000145592-1]: the IC50 under setting [1] stood at 69.9 µM.
Same read-out and setting: then `CCOC(=O)N1CCN(Cc2ccc3c(c2)c2ccccc2n3CC)CC1` [SJ000147352-1], with 29.5 µM; and `CCC(CO)NC1=C(Cl)C(=O)c2ccccc2C1=O` (centres unmarked) [SJ000148678-1], with 69.9 µM.
Regarding `CCC(COC(C)=O)NC1=C(Cl)C(=O)c2ccccc2C1=O` (centres unmarked) [SJ000149466-1], under setting [1], the IC50 was 17.2 µM.
`CCNC1=C(Cl)C(=O)c2ccccc2C1=O` [SJ000157082-1]: under setting [1], the IC50 amounted to 69.9 µM.
Turning to `Cc1ccc(-c2nc(S(=O)(=O)c3ccccc3)c(N3CCOCC3)o2)cc1` [SJ000159484-1], under setting [1], the IC50 worked out at 69.9 µM.
Still for that read-out and setting: then `CCCS(=O)(=O)N1CCN(Cc2ccc3c(c2)c2ccccc2n3CC)CC1` [SJ000167951-1], with 19.2 µM; and `CCn1c2ccccc2c2cc(CN3CCN(S(C)(=O)=O)CC3)ccc21` [SJ000168261-1], with 69.9 µM.
For the compound `CCn1c2ccccc2c2cc(CN3CCN(S(=O)(=O)CC)CC3)ccc21` [SJ000168321-1], the IC50 under setting [1] worked out at 69.9 µM.
As to `O=S(=O)(c1ccc(Cl)cc1)c1nc(-c2ccccc2Br)oc1N1CCOCC1` [SJ000184129-1], the IC50 under setting [1] is 69.9 µM.
Same read-out and setting: then `Cc1ccc(S(=O)(=O)c2nc(-c3ccccc3Br)oc2N2CCOCC2)cc1` [SJ000185415-1], with 69.9 µM.
As for `Cc1cc(C)nc(Nc2nc(N)c3ccccc3n2)n1` [SJ000189299-1], under setting [1], the IC50 amounted to 69.9 µM.
`Cc1ccccc1Nc1nc(N)c2ccccc2n1` [SJ000192476-1]: the IC50 under setting [1] amounted to 69.9 µM.
With `COc1ccccc1Nc1nc(N)c2ccccc2n1` [SJ000192505-1], the IC50 under setting [1] amounted to 69.9 µM.
For `Nc1nc(Nc2ccccc2O)nc2ccccc12` [SJ000192933-1], the IC50 under setting [1] was determined as 69.9 µM.
Turning to `Cc1ccc(C)c(Nc2nc(N)c3ccccc3n2)c1` [SJ000192944-1], the IC50 under setting [1] worked out at 69.9 µM.
For `CCOc1ccc(-c2nc(S(=O)(=O)c3ccccc3)c(N3CCOCC3)o2)cc1` [SJ000198209-1], the IC50 under setting [1] came out at 69.9 µM.
Still for that read-out and setting: then `COc1ccc(Cl)cc1Nc1nc(N)c2ccccc2n1` [SJ000200999-1], with 69.9 µM; and `Cc1ccc(Nc2nc(N)c3ccccc3n2)cc1Cl` [SJ000201287-1], with 69.9 µM.
As to `Nc1nc(Nc2ccc(Cl)c(Cl)c2)nc2ccccc12` [SJ000201376-1], the IC50 under setting [1] worked out at 69.9 µM.
Consider `COc1ccc(C)cc1Nc1nc(N)c2ccccc2n1` [SJ000201566-1], for which the IC50 under setting [1] was 69.9 µM.

The record behind these values is US20240246941A1, “SUBSTITUTED 4-(3-AMINOPROP-1-YL)AMINOQUINOLINE ANALOGS AS MODULATORS OF MELANOMA-ASSOCIATED ANTIGEN 11 UBIQUITIN LIGASE” (ST. JUDE CHILDREN'S RESEARCH HOSPITAL, INC., priority 2020, published 2024).
